According to ChEMBL document CHEMBL1138170, “Novel lactam NK1 antagonists with anti-emetic activity” (Bioorg Med Chem Lett, 2006):

Key:
Gerbil, jird [1] = test: Inhibition of GR-73632-induced foot-tapping in gerbils after 24 h at 3 mg/kg, iv; type: functional; conditions: Meriones
Substance-P receptor = Substance-P receptor (Homo sapiens, UniProt P25103); test: Displacement of [125I]-labeled substance P from the cloned human NK1 receptor expressed in CHO cells; type: cell-based
Mustela putorius furo = test: Inhibition of cis-platin induced emesis in ferrets at 1 mg/kg, iv; type: functional
[2] = target: Voltage-gated inwardly rectifying potassium channel KCNH2 (Homo sapiens, UniProt Q12809); test: Displacement of labelled MK-499 from cloned channel hERG expressed in HEK cells; type: cell-based, HEK293
Gerbil, jird [3] = test: Inhibition of GR-73632-induced foot-tapping in iv dosed gerbils after 0 h; type: functional; conditions: Meriones, read-out: ID50 (the source's name)
Gerbil, jird [4] = test: Inhibition of GR-73632-induced foot-tapping in iv dosed gerbils after 24 h; conditions: Meriones, read-out: ID50 (the source's name)
Gerbil, jird [5] = test: Inhibition of GR-73632-induced foot-tapping in iv dosed gerbils after 24 h; type: functional; conditions: Meriones, read-out: ID50 (the source's name)
Gerbil, jird [6] = test: Inhibition of GR-73632-induced foot-tapping in iv dosed gerbils after 2 h; type: functional; conditions: Meriones, read-out: ID50 (the source's name)
Gerbil, jird [7] = test: Inhibition of GR-73632-induced foot-tapping in po dosed gerbils after 24 h; type: functional; conditions: Meriones, read-out: ID50 (the source's name)

Sequence of Voltage-gated inwardly rectifying potassium channel KCNH2 (Q12809 whole entry): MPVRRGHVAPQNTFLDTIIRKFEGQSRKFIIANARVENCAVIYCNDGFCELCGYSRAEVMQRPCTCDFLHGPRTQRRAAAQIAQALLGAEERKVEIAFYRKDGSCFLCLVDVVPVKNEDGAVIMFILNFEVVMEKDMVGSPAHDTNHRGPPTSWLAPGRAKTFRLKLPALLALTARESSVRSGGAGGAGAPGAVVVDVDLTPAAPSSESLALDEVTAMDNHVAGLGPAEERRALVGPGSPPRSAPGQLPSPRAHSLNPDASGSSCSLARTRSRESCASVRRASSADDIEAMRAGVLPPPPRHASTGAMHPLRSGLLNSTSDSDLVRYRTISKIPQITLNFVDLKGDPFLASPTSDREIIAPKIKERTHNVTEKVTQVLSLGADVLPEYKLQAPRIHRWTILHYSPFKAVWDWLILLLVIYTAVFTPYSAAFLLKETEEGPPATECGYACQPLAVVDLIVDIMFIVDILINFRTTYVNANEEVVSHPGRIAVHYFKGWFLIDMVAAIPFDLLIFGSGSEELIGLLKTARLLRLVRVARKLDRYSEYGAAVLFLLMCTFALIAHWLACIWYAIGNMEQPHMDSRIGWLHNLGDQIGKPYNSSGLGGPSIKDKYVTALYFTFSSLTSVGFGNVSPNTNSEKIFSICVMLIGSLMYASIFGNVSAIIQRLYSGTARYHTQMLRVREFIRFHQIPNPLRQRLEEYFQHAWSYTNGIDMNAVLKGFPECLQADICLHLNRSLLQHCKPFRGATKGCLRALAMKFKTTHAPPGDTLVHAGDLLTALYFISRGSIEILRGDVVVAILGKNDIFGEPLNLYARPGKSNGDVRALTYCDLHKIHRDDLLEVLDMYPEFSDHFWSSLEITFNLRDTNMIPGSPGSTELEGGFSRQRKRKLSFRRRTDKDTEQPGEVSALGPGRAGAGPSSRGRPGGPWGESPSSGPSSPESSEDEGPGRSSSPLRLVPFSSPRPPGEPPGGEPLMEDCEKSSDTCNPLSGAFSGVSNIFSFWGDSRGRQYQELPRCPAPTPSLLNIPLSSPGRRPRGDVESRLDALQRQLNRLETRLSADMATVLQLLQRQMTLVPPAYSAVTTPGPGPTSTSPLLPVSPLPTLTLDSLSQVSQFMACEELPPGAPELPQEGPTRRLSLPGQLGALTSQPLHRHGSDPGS
Sequence of Substance-P receptor (P25103 whole entry): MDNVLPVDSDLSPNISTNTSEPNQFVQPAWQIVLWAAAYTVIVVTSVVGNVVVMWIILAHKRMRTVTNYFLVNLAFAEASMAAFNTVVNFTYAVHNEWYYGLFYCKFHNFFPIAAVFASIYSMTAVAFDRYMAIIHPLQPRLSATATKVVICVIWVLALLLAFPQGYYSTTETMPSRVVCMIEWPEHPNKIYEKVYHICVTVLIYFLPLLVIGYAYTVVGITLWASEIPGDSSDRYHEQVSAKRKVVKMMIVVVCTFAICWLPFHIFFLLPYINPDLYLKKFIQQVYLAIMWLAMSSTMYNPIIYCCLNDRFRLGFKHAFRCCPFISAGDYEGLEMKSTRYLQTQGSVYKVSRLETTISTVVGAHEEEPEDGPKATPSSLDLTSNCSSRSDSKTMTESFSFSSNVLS

SMILES	inhibition in vivo at 3 mg/kg (Gerbil, jird [1]) [%]	IC50 (Substance-P receptor) [nM]	inhibition in vivo at 1 mg/kg (Mustela putorius furo) [%]	Ki [2] [nM]	ED50 (Gerbil, jird [3]) [mg/kg]	ED50 (Gerbil, jird [4]) [mg/kg]	ED50 (Gerbil, jird [5]) [mg/kg]	ED50 (Gerbil, jird [6]) [mg/kg]	ED50 (Gerbil, jird [7]) [mg/kg]
O=C1C(c2cc(C(F)(F)F)cc(C(F)(F)F)c2)CCN1[C@]1(c2ccccc2)CC[C@@H](N2CCC3(CCOC3)CC2)CC1 (some centres undefined)	62	0.5	50	327	0.35	–	–	–	–
O=C1N([C@]2(c3ccccc3)CC[C@@H](N3CCC4(CCOC4)CC3)CC2)CCC1(O)c1cc(C(F)(F)F)cc(C(F)(F)F)c1 (some centres undefined)	5	0.66	–	862	–	–	–	–	–
CN(C)[C@H]1CC[C@](c2ccccc2)(N2CCC(c3cc(C(F)(F)F)cc(C(F)(F)F)c3)C2=O)CC1 (some centres undefined)	–	6.2	–	984	–	–	–	–	–
O=C1CN([C@H]2CC[C@](c3ccccc3)(N3CCC(c4cc(C(F)(F)F)cc(C(F)(F)F)c4)C3=O)CC2)CCN1c1ccccc1 (some centres undefined)	–	1.1	–	2000	0.09	2.1	–	–	–
CC1(c2cc(C(F)(F)F)cc(C(F)(F)F)c2)CCN([C@]2(c3ccccc3)CC[C@@H](N3CCC4(CCOC4)CC3)CC2)C1=O (some centres undefined)	–	0.33	–	364	–	–	0.24	–	–
CC(C(=O)N[C@]1(c2ccccc2)CC[C@@H](N2CCN(c3ccccc3)C(=O)C2)CC1)c1cc(C(F)(F)F)cc(C(F)(F)F)c1 (some centres undefined)	–	0.62	–	3710	0.13	–	1.2	–	–
O=C1CN([C@H]2CC[C@](c3ccccc3)(N3CCCC(c4cc(C(F)(F)F)cc(C(F)(F)F)c4)C3=O)CC2)CCN1c1ccccc1 (some centres undefined)	–	1.5	–	6530	–	–	–	–	–
O=C1C(c2cc(C(F)(F)F)cc(C(F)(F)F)c2)CCCN1[C@]1(c2ccccc2)CC[C@@H](N2CCC3(CCOC3)CC2)CC1 (some centres undefined)	34	0.8	–	798	–	–	–	–	–
CC(C(=O)N[C@]1(c2ccccc2)CC[C@@H](N2CCC3(CCOC3)CC2)CC1)c1cc(C(F)(F)F)cc(C(F)(F)F)c1 (some centres undefined)	–	0.34	–	–	1.44	–	1.62	1.1	2.2
CC1(c2cc(C(F)(F)F)cc(C(F)(F)F)c2)CCN([C@]2(c3ccccc3)CC[C@@H](N3CCN(c4ccccc4Cl)C(=O)C3)CC2)C1=O (some centres undefined)	57	0.48	–	–	–	–	–	–	–
COC1(c2cc(C(F)(F)F)cc(C(F)(F)F)c2)CCN([C@]2(c3ccccc3)CC[C@@H](N3CCC4(CCOC4)CC3)CC2)C1=O (some centres undefined)	29	0.48	–	–	–	–	–	–	–
CC1(c2cc(C(F)(F)F)cc(C(F)(F)F)c2)CCN([C@]2(c3ccccc3)CC[C@@H](N3CCN(c4ccccc4)C(=O)C3)CC2)C1=O (some centres undefined)	–	0.48	90	–	0.22	–	0.6	–	–
